According to patent US4256640A, “Tetrahydrothiopyrano[2,3-b]indole derivatives” (Shionogi & Co., Ltd., priority 1978, dated 1981):
Read-outs that look alike come from different tables or passages of the source.

Legend:
JCL-Wistar female rats = assay: Anti-inflammatory activity: carrageenin foot edema; type: in vivo; settings: rat, oral, 50 mg/kg, 1.0% carrageenin, swelling 3 hours later
Protocol: A 0.9% saline solution (0.05 ml) containing 1.0% carrageenin is used as phlogistic agent. After 30 minutes JCL-Wistar female rats (180-200 g) are orally administered a test compound, the phlogistic agent is injected subcutaneously into the plantar of the foots of the rats. The volume of swelling is measured 3 hours later and anti-edema activity is determined by calculating the percentage ratio of the edematous volume of medicated foot of that of non-medicated foot.

DS male mice = assay: Analgesic activity a: acetic acid writhing method; type: in vivo, mouse; settings: read-out: Analgesic Activity a ED50
Protocol: a. Acetic acid writing method
DS male mice (20-23 g) are treated with an intraperitoneal injection of 0.1 ml/10 g of 0.6% acetic acid 30 minutes after oral administration of a test compound. The number of times of writhing for 10 minutes is counted and ED50 is calculated.

[1] = Acute toxicity, oral, mice (LD50); settings: in vivo, mouse, mortality at 72 hours, P = presumption
Protocol: a. DS male mice (20-25 g) are orally administered a suspension of test compound with gum arabic. The mortality at 72 hours is determined and the LD50 is calculated.

SLC-Wistar female rats [2] = assay: Analgesic activity c: Randall and Selitto method; type: in vivo, rat; settings: 2 h, read-out: Analgesic Activity c ED50
Protocol: c. Randall and Selitto method A test compound is orally given SLC-Wistar female rats (150-170 g). Five minutes later 0.1 ml of 20% yeast suspension is subcutaneously injected into the plantar tissue of the foot.

[3] = Acute toxicity, oral, rats (LD50); settings: in vivo, rat, mortality on the 15th day
Protocol: b. JCL-Wistar female rats (180-220 g) are orally administered a suspension of test compound with gum arabic. The mortality on the 15th day is determined and the LD50 is calculated.

SLC-Wistar female rats [4] = assay: Analgesic activity b: foot-licking method; type: in vivo, rat; settings: read-out: Analgesic Activity b ED50
[5] = mouse, oral, 30 min before 0.6% acetic acid i.p., writhing counted for 10 minutes
[6] = rat, oral, 5 min before 20% yeast s.c. in foot, pain threshold at 120 minutes
[7] = rat, oral, 30 min before 3.7% formaldehyde s.c. in hind-paw, foot-licking for 50 minutes

Compound: CNCC1CCSc2[nH]c3ccccc3c21 (stereo not shown) [Comp. 1, 4-Methylaminomethyl-2,3,4,9-tetrahydrothiopyrano[2,3-b]indole]
- Anti-inflammatory Activity (JCL-Wistar female rats): 66%
- ED50 (DS male mice; [5]): 4.2 mg/kg
- LD50 at 72 h [1]: 409 mg/kg
- ED50 (SLC-Wistar female rats [2]; [6]): 8.4 mg/kg
- LD50 at 360 h [3]: 295 mg/kg
- ED50 (SLC-Wistar female rats [4]; [7]): 1.6 mg/kg

Compound: COc1ccc2c(c1)c(CC(=O)O)c(C)n2C(=O)c1ccc(Cl)cc1 [Idomethacin, reference compound]
- ED50 (DS male mice; Mus musculus, po): 7 mg/kg
- LD50 at 72 h [1]: 17 mg/kg
- ED50 (SLC-Wistar female rats [2]; po): 14 mg/kg
- LD50 at 360 h [3]: 14 mg/kg
- ED50 (SLC-Wistar female rats [4]; Rattus norvegicus, po): 65 mg/kg

Compound: CNCC1CCSc2c1c1ccccc1n2C (stereo not shown) [Comp. 2, 9-Methyl-4-methylaminomethyl-2,3,4,9-tetrahydrothiopyrano[2,3-b]indole]
- Anti-inflammatory Activity (JCL-Wistar female rats): 40%
- ED50 (DS male mice; [5]): 21.2 mg/kg
- LD50 at 72 h [1]: ~750 mg/kg
- ED50 (SLC-Wistar female rats [2]; [6]): 17.8 mg/kg
- ED50 (SLC-Wistar female rats [4]; [7]): 0.54 mg/kg

Compound: COc1cc(C)nc(-n2nc(C)cc2OC)n1 [Mepirizole, reference compound]
- ED50 (DS male mice; [5]): 110 mg/kg
- LD50 at 72 h [1]: 1150 mg/kg
- ED50 (SLC-Wistar female rats [2]; [6]): 130 mg/kg
- LD50 at 360 h [3]: 552 mg/kg
- ED50 (SLC-Wistar female rats [4]; [7]): 13 mg/kg

Compound: CNCC1CCS(=O)(=O)c2[nH]c3ccccc3c21 (stereo not shown) [Comp. 3, 4-Methylaminomethyl-2,3,4,9-tetrahydrothiopyrano[2,3-b]indole S-dioxide]
- Anti-inflammatory Activity (JCL-Wistar female rats): 25%
- ED50 (DS male mice; [5]): 11.7 mg/kg
- LD50 at 72 h [1]: ~750 mg/kg
- ED50 (SLC-Wistar female rats [2]; [6]): 19.1 mg/kg
- ED50 (SLC-Wistar female rats [4]; [7]): 2.9 mg/kg

Compound: CC(=O)n1c2c(c3ccccc31)C(CN(C)C)CCS2 (stereo not shown) [Comp. 4]
- Anti-inflammatory Activity (JCL-Wistar female rats): 44%
- ED50 (DS male mice; [5]): 21 mg/kg
- LD50 at 72 h [1]: ~175 mg/kg
- ED50 (SLC-Wistar female rats [2]; [6]): 15.9 mg/kg
- ED50 (SLC-Wistar female rats [4]; [7]): 4.7 mg/kg
